Values quoted from earlier work, collected in patent publication US20180125835A1, “Dosage and Use of an A2A Antagonist” (H. Lundbeck A/S, priority 2014, published 2018).

Conditions: in vivo; cited from earlier work

SMILES: Cc1ccc(-c2nc(N)nc3c2nnn3Cc2cccc(CO[C@H]3CCOC3)n2)o1 [Compound V-81444]
- half-life: 5 to 7 h
